BindingDB's records for doi:10.1074/jbc.M114.556480 (Yale University, 2014)
Non-standard residues stand in square brackets, D forms with d. Residues, ends and D or L forms follow the SMILES beside them. pY = N[C@@H](Cc1ccc(OP(=O)(O)O)cc1)C(=O)O

Target: T1, Tyrosine-protein kinase ABL1 [131-238] (Human, UniProt P00519)
T1 construct: 131-238
T1 sequence (P00519 whole entry): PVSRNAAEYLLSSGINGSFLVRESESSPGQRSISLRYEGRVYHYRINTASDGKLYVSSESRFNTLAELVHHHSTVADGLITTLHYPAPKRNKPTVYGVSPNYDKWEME
Test: Fluorescence Polarization Assay
Details: pH 7.25
Description: SH2 domains were dialyzed into binding buffer (50 mM Hepes, pH 7.25, 150 mM NaCl, 0.01% Nonidet P-40, 5% glycerol) and a 30-μl volume serially diluted into pre-chilled 384-well low flange black flat bottom non-binding microplates (Corning) while on ice. 5 μl of 35 nM fluorescent peptide dissolved in binding buffer was added to each well (final concentration 5 nM), mixed 5 times by pipetting, and plates were incubated at 4 °C for 40 min. Fluorescence polarization experiments were performed with an Analyst AD (Molecular Devices, Sunnyvale, CA) spectrofluorimeter. Each well was excited using 485 nm light and emission was read at 530 nm. Fluorescence polarization was measured 1 mm from the bottom of each well with an integration time of 560 ms. All experiments were conducted in triplicate.

Row | Kd [µM] | Structure (SMILES)
1 | > 61.9 | C[C@@H](O)[C@H](NC(=O)[C@H](CC(=O)O)NC(=O)[C@H](CC(=O)O)NC(=O)[C@@H](N)CCC(=O)O)C(=O)N[C@@H](Cc1ccc(OP(=O)(O)O)cc1)C(=O)N[C@@H](CC(=O)O)C(=O)NCC(=O)N[C@@H](Cc1ccc(O)cc1)C(=O)N[C@@H](CCC(=O)O)C(=O)O [EDDTpYDGYE] (H-EDDT[pY]DGYE-OH)
2 | 3.27 | CC(C)[C@H](NC(=O)[C@@H]1CCCN1C(=O)[C@H](CCC(=O)O)NC(=O)[C@@H](N)CO)C(=O)N[C@@H](Cc1ccc(OP(=O)(O)O)cc1)C(=O)N[C@@H](CCC(=O)O)C(=O)N[C@H](C(=O)N[C@H](C(=O)N[C@@H](CCC(=O)O)C(=O)O)[C@@H](C)O)[C@@H](C)O [SEPVpYETTE] (H-SEPV[pY]ETTE-OH)
3 | 3.33 | CC[C@H](C)[C@H](NC(=O)[C@@H]1CCCN1C(=O)[C@H](CO)NC(=O)[C@@H](N)CO)C(=O)N[C@@H](Cc1ccc(OP(=O)(O)O)cc1)C(=O)N[C@@H](CCC(=O)O)C(=O)N[C@@H](CC(=O)O)C(=O)N[C@@H](C)C(=O)N[C@@H](C)C(=O)O [SSPIpYEDAA] (H-SSPI[pY]EDAA-OH)
